# Laboratory results: ChEMBL document CHEMBL1152696, “Interaction study of bioactive molecules with fibrinogen and human platelets determined by 1H NMR relaxation experiments” (Bioorg Med Chem, 2009)
# Legend:
# [1] = Binding interaction with fibrinogen assessed as spin lattice relaxation rate enumerated as normalized affinity index at given concentration and fixed temperature by NMR relaxation experiment
# [2] = system: Platelet; assay: Binding interaction with platelet assessed as spin lattice relaxation rate enumerated as normalized affinity index at given concentration and fixed temperature by NMR relaxation experiment; format: cell-based
"[A]T,L [1]",Structure (SMILES),"[A]T,L (10'-8 /no of units.cm'3) [2]"
9730 /mol.dm'3,CC(C)NCC(O)c1ccc(O)c(O)c1 (centres undefined),4.47
26900 /mol.dm'3,CNC[C@H](O)c1ccc(O)c(O)c1,4.66
